{"source": "ChEMBL document CHEMBL1126105", "about": "“Dihydroxynitrobenzaldehydes and hydroxymethoxynitrobenzaldehydes: synthesis and biological activity as catechol-O-methyltransferase inhibitors” (J Med Chem, 1992)", "key": {"[1]": {"target": "T1, Catechol O-methyltransferase (Sus scrofa) (UniProt Q99028)", "T1 sequence (whole entry)": "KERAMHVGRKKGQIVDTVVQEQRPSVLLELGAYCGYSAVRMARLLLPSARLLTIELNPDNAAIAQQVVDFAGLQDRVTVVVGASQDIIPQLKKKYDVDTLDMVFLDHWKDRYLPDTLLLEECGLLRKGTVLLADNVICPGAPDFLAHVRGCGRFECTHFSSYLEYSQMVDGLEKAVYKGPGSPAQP", "experiment": "Compound was evaluated for reversible inhibition of Catechol O-methyltransferase with variable AdoMet and saturating catechol as substrate (uncompetitive inhibition)"}, "[2]": {"target": "T1, Catechol O-methyltransferase (Sus scrofa)", "experiment": "Compound was evaluated for reversible inhibition of COMT with saturating AdoMet and variable catechol as substrate (mixed inhibition)"}, "[3]": {"target": "T2, Catechol O-methyltransferase (Sus scrofa, UniProt Q99028)", "T2 sequence (Q99028 whole entry)": "T1 sequence (whole entry)", "experiment": "In vitro inhibition of Catechol-O-methyltransferase (COMT) from isolated partially purified pig liver enzyme"}, "[4]": {"target": "T1, Catechol O-methyltransferase (Sus scrofa)", "description": "(§1) Compound was evaluated for reversible inhibition of Catechol O-methyltransferase with saturating AdoMet and variable catechol as substrate (mixed inhibition)"}, "[5]": {"target": "T2, Catechol O-methyltransferase", "experiment": "Compound was evaluated for reversible inhibition of Catechol O-methyltransferase with saturating AdoMet and variable catechol as substrate (Non-competitive inhibition)"}, "[6]": {"target": "T2, Catechol O-methyltransferase", "experiment": "Compound was evaluated for reversible inhibition of Catechol O-methyltransferase with variable AdoMet and saturating catechol as substrate (uncompetitive inhibition)"}, "[7]": {"target": "T1, Catechol O-methyltransferase (Sus scrofa)", "remark": "listed apart in the source", "description": "as §1"}, "[8]": {"target": "T1, Catechol O-methyltransferase (Sus scrofa)", "remark": "listed apart in the source"}}, "data": [{"compound": "O=Cc1ccc(O)c(O)c1[N+](=O)[O-]", "values": [{"measurement": "KIs", "setting": "[1]", "value": 678, "unit": "nM"}, {"measurement": "KII", "setting": "[2]", "value": 168, "unit": "nM"}, {"measurement": "IC50", "setting": "[3]", "value": 1.5, "unit": "µM"}, {"measurement": "KIs", "setting": "[4]", "value": 0.497, "unit": "µM"}]}, {"compound": "COc1c(O)cc(C=O)cc1[N+](=O)[O-]", "values": [{"measurement": "Ki", "setting": "[5]", "value": 17.2, "unit": "µM"}, {"measurement": "Ki", "setting": "[6]", "value": 13.5, "unit": "µM"}, {"measurement": "IC50", "setting": "[3]", "value": 34, "unit": "µM"}]}, {"compound": "O=Cc1ccc([N+](=O)[O-])c(O)c1O", "values": [{"measurement": "KII", "setting": "[7]", "value": 145, "unit": "nM"}, {"measurement": "KIs", "setting": "[1]", "value": 538, "unit": "nM"}, {"measurement": "IC50", "setting": "[3]", "value": 1.5, "unit": "µM"}, {"measurement": "KIs", "setting": "[4]", "value": 0.478, "unit": "µM"}]}, {"compound": "O=Cc1cc(O)c(O)c([N+](=O)[O-])c1", "note": "[3,4-DIHYDROXY-5-NITROBENZALDEHYDE]", "values": [{"measurement": "KII", "setting": "[7]", "value": 138, "unit": "nM"}, {"measurement": "IC50", "setting": "[3]", "value": 2, "unit": "µM"}, {"measurement": "KII", "setting": "[8]", "value": "1.38e-07", "unit": "µM"}, {"measurement": "KIs", "setting": "[4]", "value": 0.816, "unit": "µM"}]}, {"compound": "O=Cc1cc(O)c(O)cc1[N+](=O)[O-]", "values": [{"measurement": "KII", "setting": "[7]", "value": 921, "unit": "nM"}, {"measurement": "IC50", "setting": "[3]", "value": 8.5, "unit": "µM"}, {"measurement": "KIs", "setting": "[4]", "value": 2.69, "unit": "µM"}]}, {"compound": "O=Cc1cc([N+](=O)[O-])cc(O)c1O", "values": [{"measurement": "KII", "setting": "[7]", "value": 231, "unit": "nM"}, {"measurement": "KIs", "setting": "[1]", "value": 7770, "unit": "nM"}, {"measurement": "IC50", "setting": "[3]", "value": 2.1, "unit": "µM"}, {"measurement": "KIs", "setting": "[4]", "value": 1.2, "unit": "µM"}]}, {"compound": "O=Cc1c([N+](=O)[O-])ccc(O)c1O", "values": [{"measurement": "KII", "setting": "[7]", "value": 909, "unit": "nM"}, {"measurement": "IC50", "setting": "[3]", "value": 10, "unit": "µM"}, {"measurement": "KIs", "setting": "[4]", "value": 4.77, "unit": "µM"}]}]}
